# In patent publication EP1311486B1, “USES OF THALIPORPHINE OR ITS DERIVATIVES IN TREATMENT OF CARDIAC DISEASES AND PREPARATION OF SAME” (Lotus Pharmaceutical Co., Ltd., priority 2000, dated 2002):
# “And” between values parts separate entries of the source, which are not always exact repeats. Identical values can stand only once.
# Legend:
# [1] = tested on: delayed outward potassium current (IK); assay: Inhibition of delayed outward potassium current; conditions: guinea pigs
# Method: Moreover, 3-10µM THP prolongs the action potential duration in the atria or ventricles of both rats and guinea pigs (data not shown).
# [2] = tested on: guinea pig right ventricular strips; assay: Ouabain-induced arrhythmia in electrically driven right ventricular strips; conditions: 10-20µM after 0.6-0.8µM ouabain
# Method: The arrhythmia was then induced 5-10 minutes after. 10-20µM THP or its derivatives were administered to reverse the ouabain-induced arrhythmia. 6-7.
# Referring to FIGs. […] The arrhythmia is then induced 5-10 minutes after.
# [3] = tested on: rats subjected to 4 hours coronary ligation; assay: Area at risk and infarct size after 4 hours coronary ligation (triphenyl tetrazolium chloride-Evan's blue staining); format: in vivo, rat
# Method: Infarct size was determined by the triphenyl tetrazolium chloride-Evan's blue staining technique. The rat was sacrificed after its left descending coronary artery had been occluded for 4 hours. The weight of infarct tissue was expressed as a percentage of total ventricular weight or occluded zone. The difference in infarct size was statistically analyzed using unpaired Student's t-test. Table 4 Area at risk and infarct size in vehicle and THP-treated rats subjected to 4 hours coronary ligation
# The difference in ischemic area and infarct size shown by staining technique after 4 hours of ischemia is evaluated. […] In the vehicle group, the necrotic area expresses either as a percentage of the area at risk (45.2±1.0%) or as a percentage of the total ventricle (19.8±2.2%), indicating the amount of cardiac tissue at risk becomes necrotic. Administration of THP reduces myocardial necrosis extension in a dose dependent manner. This reduction is observed either in the necrotic area/area at risk (38.1±5.0%, 29.0±2.5% and 10.7±1.8%/with 3.5x10^-7, 10^-6, 10^-5 g/kg of THP, respectively) or in the necrotic area/total ventricle (17.9+2.3%, 13.4±1.2% and 5.0±0.9% with 3.5x10^-7, 10^-6, 10^-5 g/kg of THP, respectively).
# plasma LDH = assay: Plasma LDH release at the end of ischemia or ischemia-reperfusion; format: in vivo, rats; conditions: for LDH (U/L) release, Ischemic / LDH (U/L) release, Reperfused: Operated
# Method: (§1) Myocardial ischemia was performed by a temporary tightening of the silk ligature around the left main coronary artery. Reperfusion was achieved by releasing the tension applied to the ligature (operated groups). Sham operated animals underwent all surgical procedures, apart from the fact that the silk, passing around the left coronary artery, was not tied (sham groups). Animals were infused with a bolus of THP (3.5x10^-7, 3.5x10^-6, 3.5x10^-5 g/kg), L-NAME (N^∞-nitro-L-arginine methyl ester; 1x10^-3 g/kg) or vehicle (dimethyl sulfoxide/ NaCl 0.9%, 1:10^3; v/v) from a jugular vein 15 minutes before coronary occlusion. The coronary artery was occluded for 30 minutes or 5 minutes followed by 30 minutes reperfusion and with the animals then divided randomly in the following groups: (1) sham + vehicle; (2) sham + THP (3.5x10^-5g/kg); (3) operated + vehicle; (4) operated + THP (3.5x10^-7 g/kg); (5) operated + THP (3.5x10^-6 g/kg); (6) operated + THP (3.5x10^-5 g/kg); (7) operated + L-NAME (1x10^-3 g/kg) + THP (3.5x10^-5 g/kg). Before and during the ischemia or reperfusion period, heart rate (HR), blood pressure (BP) and ECG changes were recorded. Ventricular ectopic activity was evaluated according to the diagnostic criteria advocated in the Lambeth Convention. The incidence and duration of ventricular tachyarrhythmias, including ventricular tachycardia (VT) and ventricular fibrillation (VF), in surviving animals was determined. The Mann-Whitney rank-sum test was used to analyze the differences in the duration of VT and VF between vehicle and drug treated groups. The BP and HR changes between vehicle and drug treated rats in the arrhythmia study were analyzed by ANOVA (analysis of variance) followed by Bonferroni's test. The difference in the percentage incidence of VT, VF and mortality rate was analyzed with a Chi-square test. Table 2 Effect of THP on ischemia-induced arrhythmias in the in vivo anesthetized rat
# (§2) Cellular damage was evaluated by measuring the plasma LDH. Arterial blood samples were drawn from the carotid catheter at the end of ischemia or ischemia-reperfusion, collected in heparinized tubes. The blood was kept at 4°C until it was centrifuged at 2000 xg for 15 minutes. The plasma was recovered and aliquots were used for determination of LDH activity with a commercial kit from Sigma. The deproteinized plasma samples were frozen and kept until analysis. NO was measured by the NO/ozone chemiluminescence technique described in Yanu F. et al., (1997) Clin. Chem. 43:657-662. The difference in plasma NO and LDH were analyzed statistically using unpaired Student's t-test. Table 5 Effects of THP on LDH (U/L) release
# The biochemical indicator of cellular damage (LDH release) is determined in ischemia and the ischemia-reperfusion period. Low LDH activity can be seen in the control group (123.6±20.6 U/L) before occlusion. After the occlusion or occlusion-reperfusion, a large increase of the enzyme is found in the plasma of rats given operated-vehicle (500.5±81.4 U/L and 273.7±29.2 U/L, respectively). However, administration of THP attenuates LDH release with a dose-dependent manner during ischemia or ischemia-reperfusion (Table 5).
# plasma NO = assay: Plasma NO release (NO/ozone chemiluminescence) after ischemia or ischemia-reperfusion; format: in vivo, rats; conditions: for NO (µmol/L) release, Ischemic / NO (µmol/L) release, Reperfused: Operated
# Method: as §1, §2
# Nitric oxide (NO) release is measured by the presence of nitrite (NO2^-) and nitrate (NO3^-) in the plasma from an animal with 30 minutes ischemia or 5 minutes followed by 30 minutes reperfusion. In sham animals, NO is measured to be 9.6±2.3 and 7.6±0.9µmol/L without and with THP pretreatment, respectively. In the operated animals, THP exerts a dramatically increase of plasma NO; at a dose of 3.5x10^-6 g/kg, there are 2- and 3.5-fold increases compared to that of the untreated (vehicle) ischemic or ischemic-reperfused animals, respectively (Table 6).
# [4] = Sham-operated, THP 3.5x10^-5 g/kg
smiles,measurement,setting,value
"COc1cc2c(cc1OC)-c1c(O)c(OC)cc3c1C(C2)N(C)CC3 (single isomer, unassigned; (+)) [THP, (+)-Thaliporphine]",delayed outward potassium current (IK),[1],markedly inhibit
same,reversal of ouabain-induced arrhythmia,[2],effective in reversing the arrhythmia
same,Area at risk (% of ventricle),[3]; THP 3.5x10^-5 g/kg,46.9±0.5 % of ventricle
same,Necrotic (% of Area at risk),[3]; THP 3.5x10^-5 g/kg,10.7±1.8 % of Area at risk
same,Necrotic (% of ventricle),[3]; THP 3.5x10^-5 g/kg,5.0±0.9 % of ventricle
same,Area at risk (% of ventricle),[3]; THP 3.5x10^-6 g/kg,46.5±0.9 % of ventricle
same,Necrotic (% of Area at risk),[3]; THP 3.5x10^-6 g/kg,29.0±2.5 % of Area at risk
same,Necrotic (% of ventricle),[3]; THP 3.5x10^-6 g/kg,13.4±1.2 % of ventricle
same,Area at risk (% of ventricle),[3]; THP 3.5x10^-7 g/kg,47.0±0.6 % of ventricle
same,Necrotic (% of Area at risk),[3]; THP 3.5x10^-7 g/kg,38.1±5.0 % of Area at risk
same,Necrotic (% of ventricle),[3]; THP 3.5x10^-7 g/kg,17.9+2.3 % of ventricle and 17.9±2.3 % of ventricle
same,"LDH (U/L) release, Ischemic",plasma LDH; THP 3.5x10^-5 g/kg,132.2±33.2 U/L
same,"LDH (U/L) release, Reperfused",plasma LDH; THP 3.5x10^-5 g/kg,143.8±11.7 U/L
same,"LDH (U/L) release, Ischemic",plasma LDH; THP 3.5x10^-6 g/kg,171.7±56.9 U/L
same,"LDH (U/L) release, Reperfused",plasma LDH; THP 3.5x10^-6 g/kg,219.6±31.0 U/L
same,"LDH (U/L) release, Ischemic",plasma LDH; THP 3.5x10^-7 g/kg,349.5±55.0 U/L
same,"LDH (U/L) release, Reperfused",plasma LDH; THP 3.5x10^-7 g/kg,202.2±30.4 U/L
same,"LDH (U/L) release, Non-ischemic",plasma LDH; [4],92.6±7.5 U/L
same,increase of plasma NO compared to untreated (vehicle) ischemic animals,"plasma NO; 3.5x10^-6 g/kg, ischemic",2 fold
same,increase of plasma NO compared to untreated (vehicle) ischemic-reperfused animals,"plasma NO; 3.5x10^-6 g/kg, ischemic-reperfused",3.5 fold
same,"NO (µmol/L) release, Ischemic",plasma NO; THP 3.5x10^-5 g/kg,19.1 ± 5.5 µmol/L
same,"NO (µmol/L) release, Reperfused",plasma NO; THP 3.5x10^-5 g/kg,30.4 ± 1.9 µmol/L
same,"NO (µmol/L) release, Ischemic",plasma NO; THP 3.5x10^-6 g/kg,19.4 ± 4.7 µmol/L
same,"NO (µmol/L) release, Reperfused",plasma NO; THP 3.5x10^-6 g/kg,28.4 ± 4.3 µmol/L
same,"NO (µmol/L) release, Ischemic",plasma NO; THP 3.5x10^-7 g/kg,6.6 ± 0.6 µmol/L
same,"NO (µmol/L) release, Reperfused",plasma NO; THP 3.5x10^-7 g/kg,8.0 ± 1.7 µmol/L
same,"NO (µmol/L) release, Non-ischemic",plasma NO; [4],7.6 ± 0.9 µmol/L
